The values below come from patent US5945421A, “Dopamine D4 receptor antagonists” (Warner-Lambert Company, priority 1997, dated 1999).

Each structure is given as a SMILES string. Like-named read-outs stand apart in the source and are kept apart here.

Test [1] addresses T1, human recombinant dopamine D4.2 receptor (Homo sapiens, UniProt P21917, DEL265-296).
T1 construct: expressed in transfected cells; host or cells: CHO K1
T1 sequence (P21917 with tags, fused parts or gaps DEL265-296): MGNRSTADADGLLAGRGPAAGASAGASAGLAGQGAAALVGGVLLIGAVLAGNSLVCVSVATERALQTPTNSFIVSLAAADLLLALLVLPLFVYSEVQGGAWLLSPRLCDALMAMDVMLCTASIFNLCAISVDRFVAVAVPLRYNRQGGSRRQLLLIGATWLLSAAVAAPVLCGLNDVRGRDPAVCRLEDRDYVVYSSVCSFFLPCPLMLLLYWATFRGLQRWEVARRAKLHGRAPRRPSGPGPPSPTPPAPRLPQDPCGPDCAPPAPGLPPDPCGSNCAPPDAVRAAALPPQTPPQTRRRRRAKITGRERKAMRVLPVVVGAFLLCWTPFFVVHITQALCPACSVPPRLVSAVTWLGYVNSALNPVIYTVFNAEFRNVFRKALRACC
The experiment in a line: Receptor binding assay, D4.2 dopamine receptor ([3H]spiperone competition, CHO K1 cell membranes). An excerpt: (§1) A cell line expressing human dopamine D2 (Long form) receptors was purchased from Oregon Health Sciences University, Portland, Oreg. The D2 receptor cDNA was subcloned into an expression vector, pRc/CMV. The plasmids were transfected by electroporation into CHO K1 cells. A single stable transfectant, resistant to the antibiotic G418, was isolated and selected for use in the binding studies. For D4 binding, CHO K1 cells stably transfected to express the human recombinant dopamine D4.2 receptor subtype, as described by Shih, et al., "The expression and functional characterization of human dopamine D4.2 receptor in CHO K1 cells," Soc. Neurosci., 21(Part 1):621 (1995).
(§2) CHO K1 cells expressing either human D2 and D4.2 receptors were grown in 162 cm^2 culture flasks in F12 medium (Gibco Laboratories, Grand Island, N.Y.) supplemented with 10% fetal bovine serum (FBS, Hyclone, Logan, Utah) in an atmosphere of 5% CO2 /95% air at 37° C. Cells were grown until confluent, after which growth medium was removed and replaced with 0.02% ethylene diamine tetracetate (EDTA) in a phosphate-buffered saline solution (Sigma Chemical Co., St. Louis, Mo.) and scraped from the flasks. The cells were centrifuged at about 1000×g for 10 minutes at 40° C. and then resuspended in TEM buffer (25 mM Tris-HCL, pH 7.4, 5 mM EDTA, and 6 mM MgCl2) for D2 or the D4.2 buffer (50 mM Tris-HCl, pH 7.4, 5 mM EDTA, 1.5 mM CaCl2, 5 mM KCl, and 120 mM NaCl) and homogenized. The membranes were pelleted by centrifugation at 20,000×g at 40° C. for 20 minutes. Then the pellets were resuspended in appropriate buffer at 1 mL/flask and stored at -70° C. until used in the receptor binding assay.
(§3) After 60 minutes incubation at 25° C., the incubations were terminated by rapid filtration through Whatmann GF/B glass fibre filters (soaked for 1 hour in 0.5% polyethylenimine) on a -cell harvester, with three washes of 1 mL ice-cold buffer. Individual filter disks containing the bound ligand were placed in counting vials with 4 mL of scintillation fluid (Ready Gel, Beckman Instrument Inc., Fullerton, Calif.) and then counted in a Beckman LS-6800 liquid scintillation counter at an efficiency of 45%. Nonspecific binding was defined in presence of 1 mM of haloperidol.
(§4) Saturation and competition binding data were analyzed using an iterative nonlinear least-square curve-fitting Ligand program. In competition experiments, apparent Ki values were calculated from IC50 values by method of Cheng and Prusoff, "Relationship between the inhibition constant (Ki) and the concentration of inhibitor which causes 50% inhibition (IC50) of an enzymatic reaction," Biochem. Pharmacol., 22:3099-3108 (1973). Experimental compounds were made up as stock solutions in dimethyl sulfoxide (DMSO). […] Each observation was carried out in triplicate. To allow these calculations, Kd values were measured for the interaction of various ligands with the receptor. […]

For test [2], the target named is human dopamine D2 (Long form) receptors (Homo sapiens, UniProt P14416). The test can be described thus: biochemical. The format is binding. The settings on record: 0.2 nM [3H]spiperone, CHO K1 membranes, 60 min, 25° C.; apparent Ki from IC50 (Cheng-Prusoff).
human dopamine D2 (Long form) receptors, sequence (P14416 whole entry): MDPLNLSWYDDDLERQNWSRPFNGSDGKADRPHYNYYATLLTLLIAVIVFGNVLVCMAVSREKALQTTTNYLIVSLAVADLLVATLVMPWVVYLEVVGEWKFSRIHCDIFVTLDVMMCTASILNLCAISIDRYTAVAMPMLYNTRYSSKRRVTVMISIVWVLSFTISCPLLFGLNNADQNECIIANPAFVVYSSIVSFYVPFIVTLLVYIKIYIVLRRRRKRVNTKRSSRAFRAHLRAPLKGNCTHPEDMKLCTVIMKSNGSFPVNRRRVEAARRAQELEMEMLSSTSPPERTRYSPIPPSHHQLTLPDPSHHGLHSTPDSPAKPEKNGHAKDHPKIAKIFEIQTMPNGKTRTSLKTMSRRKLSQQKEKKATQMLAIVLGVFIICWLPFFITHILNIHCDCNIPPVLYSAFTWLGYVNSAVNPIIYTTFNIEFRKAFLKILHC
Excerpt: as §1, §2, §3, §4

[3] abbreviates: 0.2 nM [3H]spiperone, CHO K1 membranes, 60 min, 25° C., apparent Ki from IC50 (Cheng-Prusoff), read-out: D4 Ki.

As to `Fc1ccc(C2=CCN(Cc3ccc4ccccc4n3)CC2)cc1` [2-[4-(4-Fluoro-phenyl)-3,6-dihydro-2H-pyridin-1-ylmethyl]-quinoline], the Ki in test [1] turned out to be 14.4 nM; in test [2], 254 nM.
`Clc1cccc(N2CCN(Cc3ccc4ccccc4n3)CC2)c1` [2-[4-(3-Chloro-phenyl)-piperazin-1-ylmethyl]-quinoline]: the Ki in test [1] (setting [3]) was 2.72 nM; in test [2] it was greater than 5880 nM.
Turning to `Brc1cccc(N2CCN(Cc3ccc4ccccc4n3)CC2)c1` [2-[4-(3-Bromo-phenyl)-piperazin-1-ylmethyl]-quinoline], the Ki in test [1] (setting [3]) worked out at 46 nM.
Consider `O=Cc1ccc(N2CCN(Cc3ccc4ccccc4n3)CC2)cc1Cl` [2-Chloro-4-(4-quinolin-2-ylmethyl-piperazin-1-yl)-benzaldehyde], for which the Ki in test [1] (setting [3]) amounted to 87 nM.
`OCc1ccc(N2CCN(Cc3ccc4ccccc4n3)CC2)cc1` [[4-(4-Quinolin-2-ylmethyl-piperazin-1-yl)-phenyl]-methanol]: the Ki in test [1] (setting [3]) was 139 nM; in test [2], greater than 5880 nM.
In the case of `Cc1ccc(N2CCN(Cc3cnc4ccccc4c3)CC2)cc1` [3-(4-p-Tolyl-piperazin-1-ylmethyl)-quinoline], the Ki is 21 nM in test [1] (setting [3]) and 2160 nM in test [2].
Consider `OCc1ccc(N2CCN(Cc3ccc4ccccc4n3)CC2)cc1Cl` [[2-Chloro-4-(4-quinolin-2-ylmethyl-piperazin-1-yl)-phenyl]-methanol], for which the values for the Ki in test [1] (setting [3]) and in test [2] were 8.27 nM and greater than 10000 nM, respectively.
As to `COc1ccc(N2CCN(Cc3ccc4ccccc4n3)CC2)cc1` [2-[4-(4-Methoxy-phenyl)-piperazin-1-ylmethyl]-quinoline], in test [1] (setting [3]), the Ki stood at 101 nM.
`Cc1ccc(N2CCN(Cc3ccc4ccccc4n3)CC2)cc1` [2-(4-p-Tolyl-piperazin-1-ylmethyl)-quinoline]: the Ki in test [1] (setting [3]) turned out to be 1.55 nM; in test [2] it was 2850 nM.
As to `N#Cc1ccc(N2CCN(Cc3ccc4ccccc4n3)CC2)cc1Cl` [2-chloro-4-(4-quinolin-2-ylmethyl-piperazin-1-yl)-benzonitrile], the Ki in test [1] turned out to be 101 nM.
With `c1ccc(N2CCN(Cc3cnc4ccccc4c3)CC2)cc1` [3-(4-Phenyl-piperazin-1-ylmethyl)-quinoline], the Ki in test [1] (setting [3]) came to 16 nM; in test [2], 1790 nM.
As to `CCCc1cccc(N2CCN(Cc3ccc4ccccc4n3)CC2)c1` [2-[4-(3-Propyl-phenyl)-piperazin-1-ylmethyl]-quinoline], the Ki in test [1] (setting [3]) worked out at 57 nM; in test [2], 5810 nM.
The matching figures for `OCc1ccc(N2CCN(Cc3cnc4ccccc4c3)CC2)cc1F` [[2-Fluoro-4-(4-quinolin-3-ylmethyl-piperazin-1-yl)-phenyl]-methanol]: 8.8 nM and greater than 5880 nM.
As to `OCc1ccc(N2CCN(Cc3cnc4ccccc4c3)CC2)cc1Br` [[2-Bromo-4-(4-quinolin-3-ylmethyl-piperazin-1-yl)-phenyl]-methanol], the figures for the Ki in test [1] (setting [3]) and in test [2] were 13.5 nM and greater than 5880 nM, respectively.
For the compound `FC(F)(F)c1cc(N2CCN(Cc3ccc4ccccc4n3)CC2)ccc1Cl` [2-[4-(4-Chloro-3-trifluoromethyl-phenyl)-piperazin-1-ylmethyl]-quinoline], the Ki in test [1] (setting [3]) worked out at 122 nM.
For the compound `Fc1ccccc1N1CCN(Cc2cnc3ccccc3c2)CC1` [3-[4-(2-Fluoro-phenyl)-piperazin-1-ylmethyl]-quinoline], the Ki in test [1] (setting [3]) came to 29 nM; in test [2], 512 nM.
On to `Cc1ccc(N2CCN(Cc3ccc4ccccc4n3)CC2)cc1Cl` [2-[4-(3-Chloro-4-methyl-phenyl)-piperazin-1-ylmethyl]-quinoline], for which the results for the Ki in test [1] (setting [3]) and in test [2] were 36 nM and greater than 5880 nM, respectively.
In the same order, the values of `Cc1ccc(N2CCN(Cc3ccc4ccccc4n3)CC2)cc1C` [2-[4-(3,4-Dimethyl-phenyl)-piperazin-1-ylmethyl]-quinoline] are 13 nM and greater than 5880 nM.
Turning to `Cc1cccc(N2CCN(Cc3ccc4ccccc4n3)CC2)c1` [2-(4-m-Tolyl-piperazin-1-ylmethyl)-quinoline], the Ki in test [1] (setting [3]) came out at 127 nM.
With `Clc1cccc(N2CCN(Cc3ccc4ccccc4n3)CC2)c1Cl` [2-[4-(2,3-Dichloro-phenyl)-piperazin-1-ylmethyl]-quinoline], in test [1] (setting [3]), the Ki amounted to 59.5 nM.
Still for that read-out and setting: as for `Clc1cc(Cl)cc(N2CCN(Cc3ccc4ccccc4n3)CC2)c1` [2-[4-(3,5-Dichloro-phenyl)-piperazin-1-ylmethyl]-quinoline], the figure is 121 nM.
Regarding `OCc1ccc(N2CCN(Cc3ccc4ccccc4n3)CC2)cc1Br` [[2-Bromo-4-(4-quinolin-2-ylmethyl-piperazin-1-yl)-phenyl]-methanol], the Ki in test [1] (setting [3]) was 36 nM; in test [2], greater than 5880 nM.
As to `COCc1ccc(N2CCN(Cc3ccc4ccccc4n3)CC2)cc1Cl` [2-[4-(3-Chloro-4-methoxymethyl-phenyl)-piperazin-1-ylmethyl]-quinoline], the Ki in test [1] (setting [3]) is 31.5 nM; in test [2], greater than 5880 nM.
In the case of `c1ccc(N2CCN(Cc3ccc4ncccc4c3)CC2)cc1` [6-(4-Phenyl-piperazin-1-ylmethyl)-quinoline], the Ki came out at 26 nM in test [1] (setting [3]) and 1380 nM in test [2].
The matching figures for `Clc1ccc(N2CCN(Cc3ccc4ccccc4n3)CC2)cc1Cl` [2-[4-(3,4-Dichloro-phenyl)-piperazin-1-ylmethyl]-quinoline]: 61 nM and greater than 5880 nM.
As to `OCc1ccc(N2CCN(Cc3ccc4ccccc4n3)CC2)cc1F` [[2-Fluoro-4-(4-quinolin-2-ylmethyl-piperazin-1-yl)-phenyl]-methanol], in test [1] (setting [3]), the Ki was found to be 87 nM.
